The text below walks through data of publication PMC11396972, “Synthesis of Hybrid Molecules with Imidazole-1,3,4-thiadiazole Core and Evaluation of Biological Activity on Trypanosoma cruzi and Leishmania donovani” (Molecules, 2024).

For series [1], the system named is Trypanosoma cruzi epimastigotes (Y strain (TCII)). The experiment in a line: Proliferation of T. cruzi epimastigotes, MTT test, single concentration. Type of series: cell-based. Particulars: 72 h incubation; for inhibition at 50 µM: Trypanosoma cruzi, 72 h, read-out: T. cruzi % Inhibition ± SD (antiproliferative activity); for T. cruzi % Inhibition ± SD (antiproliferative activity): 50 μM. As for the experimental part: A drug-free control (negative control) was included and positive controls were Metronidazole (Mtz), Benznidazole (Bnz), Amphotericin B (Aph), and Nifurtimox (Nfx), (50 μM). […] Parasites were collected in the logarithmic phase of growth before the experiments. It was arranged in plates of 96 wells, 2 × 10^5 epimastigotes per well and incubated at 28 °C for 24 h. Subsequently, the compounds to be evaluated, dissolved in DMSO (0.1% final), were added at a single concentration of 50 μM. A drug-free control (negative control) was included, and benznidazole and nifurtimox were included as positive controls. […] Finally, the cells were lysed with DMSO and the plate was read in a spectrophotometer at 570 nm.
Background: Tetrazolium dyes change colour on reduction, which living cells bring about.

The test system of series [2] is Leishmania donovani promastigotes (LD51 strain). The experiment in a line: Proliferation of L. donovani promastigotes, MTT test, single concentration. It is filed as cell-based. Particulars: 72 h incubation, read-out: L. donovani % Inhibition ± SD (antiproliferative activity). As for the experimental part:
A drug-free control (negative control) was included and positive controls were Metronidazole (Mtz), Benznidazole (Bnz), Amphotericin B (Aph), and Nifurtimox (Nfx), (50 μM). […] Parasites were collected in the logarithmic phase of growth before the experiments. It was arranged in plates of 96 wells, 4 × 10^5 promastigotes per well and incubated at room temperature °C for 24 h. Subsequently, the compounds to be evaluated, dissolved in DMSO (0.1% final), were added at a single concentration of 50 μM, a drug-free control (negative control) was included, and amphotericin B was used as leishmanicidal control. To select those compounds active on promastigotes, it was incubated for 72 h after and then MTT (5 mg/mL), dissolved in PBS, was added and incubated for 4 h in the dark. Finally, the cells were lysed with DMSO and the plate was read in a spectrophotometer at 570 nm.

The test system of series [3] is Trypanosoma cruzi epimastigotes (Y strain (TCII)). Put plainly: Estimation of IC50 on epimastigotes of T. cruzi, MTT test. Particulars: 72 h, eight concentrations 5–500 µM, triplicate. Type of series: cell-based. As for the experimental part: (§1) Parasites were collected in the logarithmic phase of growth before the experiments. The test compounds, as well as the reference drugs, metronidazole, nifurtimox and amphotericin B, were previously dissolved in DMSO and then in LIT medium and added to the cultures at the required concentrations; the final DMSO concentration in cultures was 1% (v/v). Eight concentrations of each compound in the range 5–500 µM were tested and assayed in triplicate. Growth inhibition was assessed after 72 h incubation in the presence of the compounds by MTT (5 mg/mL), dissolved in PBS, and incubated for 4 h in the dark. Finally, the parasites were lysed with DMSO and the plate was read in a spectrophotometer at 570 nm.

Series [4] concerns Vero cells. The experiment in a line: Host cell toxicity assay, MTT. It is filed as cell-based. Particulars: for L. donovani (SI) selectivity index: Vero cells CC50 versus L. donovani IC50; for T. cruzi (SI) selectivity index: Vero cells CC50 versus T. cruzi IC50. As for the experimental part: (§2) To determine the possible toxic effects of the compounds on the host cells, uninfected Vero cells, maintained in DMEM, BSF 10%, incubated at 37 °C in humidified 5% CO2, were counted in suspension in a Neubauer chamber and seeded at 2 × 10^4 cells/well in a 96-well plate. After 24 h compounds were added. […] A total of 5 mg/mL of MTT was added and incubated in darkness for 4 h. After this time, DMSO was added and the plate was read at 540 nm in a spectrophotometer Synergy HT (Biotek, Winooski, VT, USA).

Series [5] in a line: Host cell toxicity assay, MTT. Particulars: African green monkey, Vero cells (uninfected); Vero cells, 48 h, MTT; read-out: CC50 (μM) cytotoxicity on Vero cells. It is filed as cell-based. As for the experimental part: as §2
The subject of series [6] is Leishmania donovani promastigotes (LD51 strain). Put plainly: Estimation of IC50 on promastigotes of L. donovani, MTT test. Type of series: cell-based. Particulars: 72 h, eight concentrations 5–500 µM, triplicate. As for the experimental part: as §1

The melting point is the temperature of the solid-liquid transition. In general, inhibition refers to the drop in the measured response relative to a control, in per cent. The compound `COc1cc(-c2nnc(Nc3ccc(C(=O)OCCn4c([N+](=O)[O-])cnc4C)cc3)s2)cc(OC)c1OC` [Compound 23, 2-(2-Methyl-5-nitro-1H-imidazol-1-yl)ethyl-4-{[5-(3,4,5-trimethoxyphenyl)-1,3,4-thiadiazol-2-yl]amino}benzoate] gave a melting point of 252 °C. Besides, in series [1], the inhibition at 50 µM came out at 20.3 ± 6.73%. Besides, the inhibition at 50 µM in series [2] was found to be 12.7 ± 2.31%.

By IC50 is commonly meant the concentration that inhibits the measured activity by half. One may read the CC50 as the concentration that lowers cell viability or growth by half. Take `Cc1ncc([N+](=O)[O-])n1CCOC(=O)c1ccc(Nc2nnc(-c3ccc(Cl)cc3)s2)cc1` [Compound 20, 2-(2-Methyl-5-nitro-1H-imidazol-1-yl)ethyl-4-{[5-(4-chlorophenyl)-1,3,4-thiadiazol-yl]amino}benzoate]: the melting point lay in the range of 242 to 244 °C. Besides, in series [3], the IC50 is 51.7 ± 6.59 µM. Also, in series [4], the “L. donovani (SI) selectivity index” value is more than 9.17 and the “T. cruzi (SI) selectivity index” value is more than 9.67. The CC50 at 48 h in series [5] was more than 500 µM. Besides, in series [1], the “T. cruzi % Inhibition ± SD (antiproliferative activity)” value (“T. cruzi % Inhibition ± SD” below) came to 49.37 ± 4.45% and the inhibition at 50 µM was approximately 50%. For the same compound, the IC50 in series [6] was 54.5 ± 8.51 µM. Moreover, the inhibition at 50 µM in series [2] is 40.4 ± 4.18%.

As for `CC1CS(=O)(=O)CCN1/N=C/c1ccc([N+](=O)[O-])o1` (stereo not shown) [Nfx, Nifurtimox, reference compound], in series [3], the IC50 was 1.81 ± 0.45 µM. Also, in series [5], the CC50 at 48 h was more than 90 µM. In addition, the inhibition at 50 µM in series [1] was determined as 83 ± 1.6%.

Consider `C[C@@H]1[C@H](O)[C@@H](C)/C=C/C=C/C=C/C=C/C=C/C=C/C=C/[C@H](O[C@@H]2O[C@H](C)[C@@H](O)[C@H](N)[C@@H]2O)C[C@@H]2O[C@](O)(C[C@@H](O)C[C@@H](O)[C@H](O)CC[C@@H](O)C[C@@H](O)CC(=O)O[C@H]1C)C[C@H](O)[C@H]2C(=O)O` [Aph, Amphotericin B, reference compound], for which, in series [5], the CC50 at 48 h is more than 250 µM. Also, in series [6], the IC50 was 0.33 ± 0.02 µM. Besides, the inhibition at 50 µM in series [2] turned out to be 62.4 ± 6.6%.

For the compound `Cc1ncc([N+](=O)[O-])n1CCO` [Mtz, Metronidazole, reference compound], the IC50 in series [3] was 180 ± 18.9 µM; in series [6], 50.3 ± 11.9 µM. The inhibition at 50 µM in series [1] amounted to 12.2 ± 5.3%.

Consider `Cc1ncc([N+](=O)[O-])n1CCOC(=O)c1ccc(Nc2nnc(-c3cccnc3)s2)cc1` [Compound 18, 2-(2-Methyl-5-nitro-1H-imidazol-1-yl)ethyl-4-[(5-(pyridin-3-yl)-1,3,4-thiadiazol-2-yl]amino)benzoate], for which the melting point lay within 232 to 234 °C. The inhibition at 50 µM in series [1] came out at 17.4 ± 14.4%. Moreover, the inhibition at 50 µM in series [2] turned out to be 10.1 ± 2.92%.

Consider `Cc1ncc([N+](=O)[O-])n1CCOC(=O)c1ccc(Nc2nnc(-c3ccc(-c4ccccc4)cc3)s2)cc1` [Compound 22, 2-(2-Methyl-5-nitro-1H-imidazol-1-yl)ethyl-4-{[5-((1,1’-biphenyl)-4-yl)-1,3,4-thiadiazol-2-yl]amino}benzoate], for which the melting point was more than 300 °C. Further, the inhibition at 50 µM in series [1] is 7 ± 2.28%. Moreover, the inhibition at 50 µM in series [2] stood at 12.9 ± 2.08%.

Compound `Cc1ncc([N+](=O)[O-])n1CCOC(=O)c1ccc(Nc2nnc(-c3ccccc3)s2)cc1` [Compound 21, 2-(2-Methyl-5-nitro-1H-imidazol-1-yl)ethyl-4-[(5-phenyl-1,3,4-thiadiazol-2-yl)amino]benzoate] had a melting point of 240 to 242 °C. For the same compound, the IC50 in series [3] is 55.5 ± 7.2 µM. For the same compound, in series [4], the “L. donovani (SI) selectivity index” value is given as more than 49.65 and the “T. cruzi (SI) selectivity index” value is more than 9.01. Further, the CC50 at 48 h in series [5] is more than 500 µM. In series [1], the “T. cruzi % Inhibition ± SD” value was 58.35 ± 2.05% and the inhibition at 50 µM was approximately 50%. Moreover, the IC50 in series [6] is 10.1 ± 2.21 µM. Besides, the inhibition at 50 µM in series [2] came out at 71.4 ± 5.28%.

For `O=C(Cn1ccnc1[N+](=O)[O-])NCc1ccccc1` [Bnz, Benznidazole, reference compound], in series [1], the inhibition at 50 µM stood at 45.4 ± 6.21%.

Turning to `Cc1ncc([N+](=O)[O-])n1CCOC(=O)c1ccc(Nc2nnc(-c3cccc(Cl)c3)s2)cc1` [Compound 19, 2-(2-Methyl-5-nitro-1H-imidazol-1-yl)ethyl-4-{[5-(3-chlorophenyl)-1,3,4-thiadiazol-2-yl]amino}benzoate], the melting point was 202 to 204 °C. The half-maximal inhibitory concentration (IC50) in series [3] is 56.3 ± 6.83 µM. Besides, in series [4], the “L. donovani (SI) selectivity index” value was more than 8.37 and the “T. cruzi (SI) selectivity index” value is given as more than 8.87. Further, the CC50 at 48 h in series [5] is more than 500 µM. In series [1], the “T. cruzi % Inhibition ± SD” value is given as 53.10 ± 3.68% and the inhibition at 50 µM was approximately 50%. The IC50 in series [6] is 59.7 ± 8.82 µM. In addition, the inhibition at 50 µM in series [2] amounted to 31.8 ± 1.95%.
